Measurements published in patent US4898815A (priority 1983, dated 1990).

Test system: intestinal loop of C3H mice
Design: species or system C3H mouse
Conditions: mouse, in vivo

Substance: cholera toxin
- weight per cm of intestine (milligrams per centimeter of intestine): 126.7 mg
